We go through four molecules from patent US12121512B2, “Anti-fungal agent” (priority 2019, dated 2024).

Molecules are shown by their SMILES. Values after ≈ are worked out from the molar mass of the structure shown.

The test system of assay [1] is Cryptococcus neoformans var. grubii clinical isolates and multi-azole resistant strains. Nature of the assay: microbe, parasite or virus in culture. It is filed as cell-based. To be noted: E-test; for MIC range: 14 isolates (Nos. 1-14); for MIC: Cryptococcus neoformans. An excerpt: Six isolates of cryptococcus were obtained from skin-infected cats and five from systemically infected cats, for a total of 11 strains.
(§1) Three isolates of cryptococcus were acquired from skin-infected humans.
(§2) All of the above-acquired isolates were Cryptococcus neoformans var. grubii strains (type A).
(§3) Further, as described below, 3 multidrug-resistant strains resistant to fluconazole (FLCZ) and voriconazole (VRCZ) as azole-based antifungal agents were acquired.
Thereafter, 12 colonies generated on the plate were inoculated on Sabouraud glucose agar medium containing 5 μg/ml of VRCZ. This was cultured at room temperature for 10 days, and the obtained colonies were further subcultured, to obtain 3 azole-based multidrug-resistant strains.
Sensitivity to fluconazole (FLCZ), itraconazole (ITCZ) and voriconazole (VRCZ) was evaluated using the E-test. […] E-test gradient strips were purchased from AB BIODISK. The MICs for FLCZ, ITCZ and VRCZ were determined after culturing at 35° C. for 72 hours. Each isolate was tested twice at shifted times, and each test included twice measurements.

Assay [2] shares this test system. Nature of the assay: CLSI M27-A3 broth microdilution MIC assay. Format: cell-based. The note with it: for MIC: Cryptococcus neoformans.
From the text: Six isolates of cryptococcus were obtained from skin-infected cats and five from systemically infected cats, for a total of 11 strains. One strain of cat skin cryptococcus and one strain of cat systemic cryptococcus were fluconazole-resistant.
as §1, §2, §3
Clinically separated fluconazole (FLCZ) resistant Cryptococcus neoformans cells (2.3×10^5) were inoculated on Sabouraud glucose agar medium containing 3 μg/ml of voriconazole (VRCZ), and cultured at room temperature for 7 days. Thereafter, 12 colonies generated on the plate were inoculated on Sabouraud glucose agar medium containing 5 μg/ml of VRCZ. This was cultured at room temperature for 10 days, and the obtained colonies were further subcultured, to obtain 3 azole-based multidrug-resistant strains.
The strains obtained in Example 1 were maintained on Sabouraud glucose agar medium until the test of sensitivity to antifungal compounds.
Sensitivity to ravuconazole (RVCZ) was determined according to the CLSI M27-A3 guideline using broth microdilution assay. The minimum inhibitory concentration (MIC) was measured after culturing at 35° C. for 72 hours. MIC was defined as the lowest concentration that induces significant inhibition of growth (inhibition of about 50% or more).
CLSI M27-A3 test and E-test MIC assay were performed using Candida parapsilosis ATCC 22019 and Candida kruzei ATCC 6258 purchased from ATCC as controls. As a result, a high correlation was observed between the MIC results of the azole-based drugs obtained in the CLSI M27-A3 test and the E-test, so the results of both were compared.
(In general: In broth dilution the organism is exposed to a series of concentrations in liquid medium.)

Setting [3] is: 72 h, Strain No. 1, Feline cutaneous cryptococcosis, 35° C.
Where [4] appears, read: 72 h, Strain No. 2, Feline systemic cryptococcosis, 35° C.
Where [5] appears, read: 72 h, Strain No. 3, Feline systemic cryptococcosis, 35° C.
Setting [6] is: 72 h, Strain No. 4, Feline cutaneous cryptococcosis, 35° C.
[7] abbreviates: 72 h, Strain No. 6, Feline systemic cryptococcosis, 35° C.
The mark [8] stands for this setting: 72 h, Strain No. 7, Feline systemic cryptococcosis, 35° C.
The mark [9] stands for this setting: 72 h, Strain No. 8 (FLCZ resistant strain), Feline systemic cryptococcosis, 35° C.
[10] abbreviates: 72 h, Strain No. 9, Feline systemic cryptococcosis, 35° C.
Where [11] appears, read: 72 h, Strain No. 10, Feline cutaneous cryptococcosis, 35° C.
Setting [12] is: 72 h, Strain No. 11, Human cutaneous cryptococcosis, 35° C.
Setting [13] is: 72 h, Strain No. 12, Human cutaneous cryptococcosis, 35° C.
Where [14] appears, read: 72 h, Strain No. 13, Human cutaneous cryptococcosis, 35° C.
The mark [15] stands for this setting: 72 h, Strain No. 14 (FLCZ resistant strain), Feline cutaneous cryptococcosis, 35° C.
Where [16] appears, read: 72 h, Strain No. 15, Multi-azole resistance strain, 35° C.
Where [17] appears, read: 72 h, Strain No. 16, Multi-azole resistance strain, 35° C.
Setting [18] is: 72 h, Strain No. 17, Multi-azole resistance strain, 35° C.
Setting [19] is: azole-based multidrug-resistant strains (Nos. 15-17).
Where [20] appears, read: read-out: average MIC, 14 isolates (Nos. 1-14).
[21] abbreviates: 72 h, Strain No. 5, Feline cutaneous cryptococcosis, 35° C.

In turn, `C[C@@H](c1ncncc1F)[C@](O)(Cn1cncn1)c1ccc(F)cc1F` [VRCZ, voriconazole] had an MIC range in assay [1] of under 0.002 to 0.125 µg/mL. Further, the MIC in assay [1] (setting [3]) was 0.008 µg/mL (≈ 0.0229 µM); in assay [1] (setting [4]), under 0.002 µg/mL; in assay [1] (setting [5]), 0.032 µg/mL (≈ 0.0916 µM); in assay [1] (setting [6]), 0.064 µg/mL (≈ 0.183 µM); in assay [1] (setting [7]), 0.047 µg/mL (≈ 0.135 µM); in assay [1] (setting [8]), 0.032 µg/mL (≈ 0.0916 µM). The MIC in assay [1] (setting [9]) was 0.094 µg/mL (≈ 0.269 µM); in assay [1] (setting [10]) it was 0.012 µg/mL (≈ 0.0344 µM); in assay [1] (setting [11]), 0.023 µg/mL (≈ 0.0658 µM); in assay [1] (setting [12]), 0.003 µg/mL (≈ 0.00859 µM); in assay [1] (setting [13]), 0.006 µg/mL (≈ 0.0172 µM); in assay [1] (setting [14]) it was 0.003 µg/mL (≈ 0.00859 µM). Also, the MIC in assay [1] (setting [15]) was 0.023 µg/mL (≈ 0.0658 µM); in assay [1] (setting [16]) it was 12 µg/mL (≈ 34.4 µM); in assay [1] (setting [17]), 8 µg/mL (≈ 22.9 µM); in assay [1] (setting [18]), 6 µg/mL (≈ 17.2 µM); in assay [1] (setting [19]), 6 to 12 µg/mL (≈ 17.2 to 34.4 µM); in assay [1] (setting [20]), 0.036 µg/mL (≈ 0.103 µM).
With `OC(Cn1cncn1)(Cn1cncn1)c1ccc(F)cc1F` [FLCZ, fluconazole], in assay [1], the MIC range is under 0.016 to 128 µg/mL. The MIC was 3 µg/mL (≈ 9.8 µM) in assay [1] (setting [3]); under 0.016 µg/mL in assay [1] (setting [4]); 6 µg/mL (≈ 19.6 µM) in assay [1] (setting [5]); 16 µg/mL (≈ 52.2 µM) in assay [1] (setting [6]); 32 µg/mL (≈ 104 µM) in assay [1] (setting [21]); 2 µg/mL (≈ 6.53 µM) in assay [1] (setting [7]). The MIC in assay [1] (setting [8]) is 1.5 µg/mL (≈ 4.9 µM); in assay [1] (setting [9]), over 256 µg/mL; in assay [1] (setting [10]) it was 1.5 µg/mL (≈ 4.9 µM); in assay [1] (setting [11]) it was 14 µg/mL (≈ 45.7 µM); in assay [1] (setting [12]), 1.5 µg/mL (≈ 4.9 µM); in assay [1] (setting [13]), 1.5 µg/mL (≈ 4.9 µM). Besides, the MIC in assay [1] (setting [14]) is 0.75 µg/mL (≈ 2.45 µM); in assay [1] (setting [15]), 128 µg/mL (≈ 418 µM); in assay [1] (setting [16]), over 256 µg/mL; in assay [1] (setting [17]) it was over 256 µg/mL; in assay [1] (setting [18]), over 256 µg/mL; in assay [1] (setting [19]), over 256 µg/mL. The MIC in assay [1] (setting [20]) came to 17.3 µg/mL (≈ 56.5 µM).
For `C[C@@H](c1nc(-c2ccc(C#N)cc2)cs1)[C@](O)(Cn1cncn1)c1ccc(F)cc1F` [RVCZ, ravuconazole], the MIC range in assay [2] (14 isolates (Nos. 1-14), CLSI M27-A3) is under 0.003125 to 0.25 µg/mL. The MIC in assay [2] (72 h, Strain No. 1, Feline cutaneous cryptococcosis, CLSI M27-A3, 35° C.) stood at 0.0312 µg/mL (≈ 0.0714 µM); in assay [2] (72 h, Strain No. 2, Feline systemic cryptococcosis, CLSI M27-A3, 35° C.) it was 0.0312 µg/mL (≈ 0.0714 µM); in assay [2] (72 h, Strain No. 3, Feline systemic cryptococcosis, CLSI M27-A3, 35° C.) it was 0.0312 µg/mL (≈ 0.0714 µM); in assay [2] (72 h, Strain No. 4, Feline cutaneous cryptococcosis, CLSI M27-A3, 35° C.), 0.0625 µg/mL (≈ 0.143 µM); in assay [2] (72 h, Strain No. 5, Feline cutaneous cryptococcosis, CLSI M27-A3, 35° C.) it was 0.0625 µg/mL (≈ 0.143 µM); in assay [2] (72 h, Strain No. 6, Feline systemic cryptococcosis, CLSI M27-A3, 35° C.), 0.125 µg/mL (≈ 0.286 µM). Moreover, the MIC turned out to be 0.0625 µg/mL (≈ 0.143 µM) in assay [2] (72 h, Strain No. 7, Feline systemic cryptococcosis, CLSI M27-A3, 35° C.); 0.125 µg/mL (≈ 0.286 µM) in assay [2] (72 h, Strain No. 8 (FLCZ resistant strain), Feline systemic cryptococcosis, CLSI M27-A3, 35° C.); 0.0312 µg/mL (≈ 0.0714 µM) in assay [2] (72 h, Strain No. 9, Feline systemic cryptococcosis, CLSI M27-A3, 35° C.); 0.125 µg/mL (≈ 0.286 µM) in assay [2] (72 h, Strain No. 10, Feline cutaneous cryptococcosis, CLSI M27-A3, 35° C.); 0.0312 µg/mL (≈ 0.0714 µM) in assay [2] (72 h, Strain No. 11, Human cutaneous cryptococcosis, CLSI M27-A3, 35° C.); 0.0312 µg/mL (≈ 0.0714 µM) in assay [2] (72 h, Strain No. 12, Human cutaneous cryptococcosis, CLSI M27-A3, 35° C.). Moreover, the MIC was 0.0312 µg/mL (≈ 0.0714 µM) in assay [2] (72 h, Strain No. 13, Human cutaneous cryptococcosis, CLSI M27-A3, 35° C.); 0.125 µg/mL (≈ 0.286 µM) in assay [2] (72 h, Strain No. 14 (FLCZ resistant strain), Feline cutaneous cryptococcosis, CLSI M27-A3, 35° C.); 0.5 µg/mL (≈ 1.14 µM) in assay [2] (72 h, Strain No. 15, Multi-azole resistance strain, CLSI M27-A3, 35° C.); 0.5 µg/mL (≈ 1.14 µM) in assay [2] (72 h, Strain No. 16, Multi-azole resistance strain, CLSI M27-A3, 35° C.); 0.25 µg/mL (≈ 0.571 µM) in assay [2] (72 h, Strain No. 17, Multi-azole resistance strain, CLSI M27-A3, 35° C.); 0.25 to 0.5 µg/mL (≈ 0.571 to 1.14 µM) in assay [2] (azole-based multidrug-resistant strains (Nos. 15-17), CLSI M27-A3). Besides, in assay [2] (read-out: average MIC, 14 isolates (Nos. 1-14), CLSI M27-A3), the MIC was determined as 0.0376 µg/mL (≈ 0.0859 µM).
In assay [1], `CCC(C)n1ncn(-c2ccc(N3CCN(c4ccc(OCC5COC(Cn6cncn6)(c6ccc(Cl)cc6Cl)O5)cc4)CC3)cc2)c1=O` (stereo not shown) [ITCZ, itraconazole] had an MIC range of under 0.002 to 0.75 µg/mL. Also, the MIC in assay [1] (setting [3]) worked out at 0.047 µg/mL (≈ 0.0666 µM); in assay [1] (setting [4]), 0.002 µg/mL (≈ 0.00283 µM); in assay [1] (setting [5]), 0.23 µg/mL (≈ 0.326 µM); in assay [1] (setting [6]) it was 0.018 µg/mL (≈ 0.0255 µM); in assay [1] (setting [21]) it was 0.5 µg/mL (≈ 0.709 µM); in assay [1] (setting [7]), 0.064 µg/mL (≈ 0.0907 µM). For the same molecule, the MIC in assay [1] (setting [8]) was 0.38 µg/mL (≈ 0.539 µM); in assay [1] (setting [9]) it was 0.25 µg/mL (≈ 0.354 µM); in assay [1] (setting [10]) it was 0.23 µg/mL (≈ 0.326 µM); in assay [1] (setting [11]), 0.75 µg/mL (≈ 1.06 µM); in assay [1] (setting [12]), 0.19 µg/mL (≈ 0.269 µM); in assay [1] (setting [13]), 0.125 µg/mL (≈ 0.177 µM). Moreover, the MIC is 0.125 µg/mL (≈ 0.177 µM) in assay [1] (setting [14]); 0.38 µg/mL (≈ 0.539 µM) in assay [1] (setting [15]); over 32 µg/mL in assay [1] (setting [16]); over 32 µg/mL in assay [1] (setting [17]); over 32 µg/mL in assay [1] (setting [18]); over 32 µg/mL in assay [1] (setting [19]). In assay [1] (setting [20]), the MIC was determined as 0.235 µg/mL (≈ 0.333 µM).
